{
  "source": "patent US4046762A",
  "about": "“Esters and amides of 3-aryl-1,4 benzodioxan-2-carboxylic acids” (Instituto Luso Farmaco D'Italia S.r.l., priority 1972, dated 1977)",
  "key": {"Arrhytmia CaCl2": {"tested_on": "Arrhytmia CaCl2", "assay": "Arrhytmia CaCl2 - rat", "format": "in vivo", "conditions": "intravenously, 7.5 mg/kg"}, "Oedema from charragenin": {"tested_on": "Oedema from charragenin", "assay": "Oedema from charragenin, rat", "format": "in vivo", "conditions": "i.p."}, "[1]": {"assay": "Indicative acute toxicity, mouse (intraperitoneally)", "conditions": "in vivo, ip, read-out: Indicative acute toxicity, DL50"}, "tail of mouse": {"tested_on": "tail of mouse", "assay": "Local anaesthetic activity, tail of mouse", "format": "in vivo"}, "[2]": {"tested_on": "Stretching from acetic acid", "assay": "Stretching from acetic acid", "format": "in vivo", "conditions": "for ED50: read-out: Stretching from acetic acid, DE50"}, "sciatic nerve of rat": {"tested_on": "sciatic nerve of rat", "assay": "Local anaesthetic activity, sciatic nerve of rat"}, "ileum of Guinea pig": {"tested_on": "ileum of Guinea pig", "assay": "Antihystaminic activity, ileum of Guinea pig", "conditions": "Cavia porcellus, 10 γ/ml"}, "Antituxive activity": {"tested_on": "Antituxive activity", "assay": "Antituxive activity", "format": "in vivo", "conditions": "for ED50: read-out: Antituxive activity, DE50"}, "Antipyresis": {"tested_on": "Antipyresis", "assay": "Antipyresis, rat", "format": "in vivo", "conditions": "65 mg/kg"}, "central nervous system [3]": {"tested_on": "central nervous system", "assay": "Activity on central nervous system, mouse: depression of spontaneous motility", "format": "in vivo", "conditions": "orally"}, "central nervous system [4]": {"tested_on": "central nervous system", "assay": "Activity on central nervous system, mouse: Stereotipy (apomorphine)", "format": "in vivo", "conditions": "orally, 40 mg/kg"}, "central nervous system [5]": {"tested_on": "central nervous system", "assay": "Activity on central nervous system, mouse: Potentiation of barbituric hypnosis", "format": "in vivo", "conditions": "orally, 15 mg/kg"}, "central nervous system [6]": {"tested_on": "central nervous system", "assay": "Activity on central nervous system, mouse: Catalepsy (haloperidol)", "format": "in vivo", "conditions": "orally, 15 mg/kg"}, "central nervous system [7]": {"tested_on": "central nervous system", "assay": "Activity on central nervous system, mouse: Stereotipy (amphetamine)", "format": "in vivo", "conditions": "orally, 180 mg/kg"}},
  "note": "Structures can show the parent of a compound that is named as a salt.",
  "data": [
    {"compound": "CCN(CC)CCOC(=O)C1Oc2ccccc2OC1c1ccccc1", "note": "(stereo not drawn) [LR 520, n,n-diethylaminoethyl (3-phenyl-1,4-benzodioxan-2-yl)-carboxylate,citrate]", "values": [
      {"measurement": "Arrhytmia CaCl2", "setting": "Arrhytmia CaCl2", "result": 40},
      {"measurement": "Oedema from charragenin, %", "setting": "Oedema from charragenin; 60 mg/kg", "result": 9, "unit": "%"},
      {"measurement": "LD50", "setting": "[1]", "result": 300, "unit": "mg/kg"}
    ]},
    {"compound": "O=C(OCCOCCN1CCOCC1)C1Oc2ccccc2OC1c1ccccc1", "note": "(stereo not drawn) [LR 348, morpholinoethoxyethyl (3-phenyl-1,4-benzodioxan-2-yl)-carboxylate,hydrochloride]", "values": [
      {"measurement": "Local anaesthetic activity, tail of mouse, DE50", "setting": "tail of mouse", "result": 2.70, "unit": "mg/mL"},
      {"measurement": "Oedema from charragenin, %", "setting": "Oedema from charragenin; 50 mg/kg", "result": 40, "unit": "%"},
      {"measurement": "ED50", "setting": "[2]", "result": 15.6, "unit": "mg/kg"},
      {"measurement": "Local anaesthetic activity, sciatic nerve of rat, DE50", "setting": "sciatic nerve of rat", "result": 12.2, "unit": "mg/mL"},
      {"measurement": "inhibition at 10 µg/mL", "setting": "ileum of Guinea pig", "result": 60, "unit": "%"},
      {"measurement": "LD50", "setting": "[1]", "result": 250, "unit": "mg/kg"},
      {"measurement": "ED50", "setting": "Antituxive activity", "result": 50, "unit": "mg/kg"}
    ]},
    {"compound": "O=C(C1Oc2ccccc2OC1c1ccccc1)N1CCN(c2ccccc2)CC1", "note": "(stereo not drawn) [LR 394, n'-phenyl-N-(3-phenyl-1,4-benzodioxan-2-ylcarbonyl)-piperazine.H2 0]", "values": [
      {"measurement": "Antipyresis, %", "setting": "Antipyresis", "result": 100, "unit": "%"},
      {"measurement": "Oedema from charragenin, %", "setting": "Oedema from charragenin; 42 mg/kg", "result": 50, "unit": "%"},
      {"measurement": "ED50", "setting": "central nervous system [3]; po, read-out: depression of spontaneous motility, DE50", "result": 33.5, "unit": "mg/kg"},
      {"measurement": "ED50", "setting": "[2]", "result": 22, "unit": "mg/kg"},
      {"measurement": "LD50", "setting": "[1]", "result": 330, "unit": "mg/kg"},
      {"measurement": "Antituxive activity, %", "setting": "Antituxive activity; 10 mg/kg", "result": 64, "unit": "%"}
    ]},
    {"compound": "CC(C)NC(=O)C1Oc2ccccc2OC1c1ccccc1", "note": "(stereo not drawn) [LR 367, n-(3-phenyl-1,4-benzodioxan-2-ylcarbonyl)-isopropylamine]", "values": [
      {"measurement": "Oedema from charragenin, %", "setting": "Oedema from charragenin; 200 mg/kg", "result": 30, "unit": "%"},
      {"measurement": "depression of spontaneous motility, %", "setting": "central nervous system [3]; 150 mg/kg", "result": 32, "unit": "%"},
      {"measurement": "ED50", "setting": "[2]", "result": 138, "unit": "mg/kg"},
      {"measurement": "LD50", "setting": "[1]", "result": "> 3000", "unit": "mg/kg"},
      {"measurement": "ED50", "setting": "Antituxive activity", "result": 86, "unit": "mg/kg"}
    ]},
    {"compound": "O=C(NO)C1Oc2ccccc2OC1c1ccccc1", "note": "(stereo not drawn) [LR 518, (3-phenyl-1,4-benzodioxan-2-yl)-carbohydroxamic acid]", "values": [
      {"measurement": "Stereotipy (apomorphine), %", "setting": "central nervous system [4]", "result": 30, "unit": "%"},
      {"measurement": "Oedema from charragenin, %", "setting": "Oedema from charragenin; 40 mg/kg", "result": 12, "unit": "%"},
      {"measurement": "LD50", "setting": "[1]", "result": 175, "unit": "mg/kg"}
    ]},
    {"compound": "CCN(CC)CCOCCOC(=O)C1Oc2ccccc2OC1c1ccccc1", "note": "(stereo not drawn) [LR 349, n,n-diethylaminoethoxyethyl (3-phenyl-1,4-benzodioxan-2-yl)-carboxylate, citrate]", "values": [
      {"measurement": "Local anaesthetic activity, tail of mouse, DE50", "setting": "tail of mouse", "result": 2.85, "unit": "mg/mL"},
      {"measurement": "Oedema from charragenin, %", "setting": "Oedema from charragenin; 50 mg/kg", "result": 50, "unit": "%"},
      {"measurement": "Stretching from acetic acid, %", "setting": "[2]; 10 mg/kg", "result": 20, "unit": "%"},
      {"measurement": "Local anaesthetic activity, sciatic nerve of rat, DE50", "setting": "sciatic nerve of rat", "result": 11.2, "unit": "mg/mL"},
      {"measurement": "LD50", "setting": "[1]", "result": 200, "unit": "mg/kg"},
      {"measurement": "ED50", "setting": "Antituxive activity", "result": 39.5, "unit": "mg/kg"}
    ]},
    {"compound": "CCN(CC)CCNC(=O)C1Oc2ccccc2OC1c1ccccc1", "note": "(stereo not drawn) [LR 510, n-(n',n'-diethylaminoethyl)-(3-phenyl-1,4-benzodioxan-2-ylcarbonyl)-amine]", "values": [
      {"measurement": "Potentiation of barbituric hypnosis, %", "setting": "central nervous system [5]", "result": 20, "unit": "%"},
      {"measurement": "LD50", "setting": "[1]", "result": 75, "unit": "mg/kg"},
      {"measurement": "Catalepsy (haloperidol), %", "setting": "central nervous system [6]", "result": 33, "unit": "%"}
    ]},
    {"compound": "O=C(C1Oc2ccccc2OC1c1ccccc1)N1CCOCC1", "note": "(stereo not drawn) [LR 519, n-(3-phenyl-1,4-benzodioxan-2-ylcarbonyl)-morpholine]", "values": [
      {"measurement": "Oedema from charragenin, %", "setting": "Oedema from charragenin; 180 mg/kg", "result": 15, "unit": "%"},
      {"measurement": "LD50", "setting": "[1]", "result": 750, "unit": "mg/kg"},
      {"measurement": "Stereotipy (amphetamine), %", "setting": "central nervous system [7]", "result": 20, "unit": "%"}
    ]}
  ]
}
